Source: a melting point compilation (Tetko et al.; mined from patent text by program, amines drawn as free bases though some values may be those of a salt)

SMILES | melting point
O=C(Nc1ccccc1OC(=O)c1ccccc1)c1cc(Cl)c(OC(=O)c2ccccc2)c(Cl)c1 | 157 to 160 °C
CN(CCO)c1ccnc(CSc2nc3ccccc3[nH]2)c1Cl | 132 to 135 °C
CCCc1c(OCCCc2ccc3cc(OC)c(OC)cc3c2)ccc(C(=O)OCc2ccccc2)c1O | 94 to 96 °C
O=S(=O)(OC(c1cccc(C(OS(=O)(=O)c2ccc(Cl)cc2)(C(F)(F)F)C(F)(F)F)c1)(C(F)(F)F)C(F)(F)F)c1ccc(Cl)cc1 | 125 °C
O=C(O)Cc1cc(C(=O)c2ccc3cc(-c4ccccc4)[nH]c3c2)sc1-c1ccccc1 | 238 to 240 °C
CCCc1c(O)cccc1Oc1cc(F)ccc1C(=O)OC | 92 to 94 °C
CC1=C(C(=O)OC(C)(C)C)C(c2ccc(F)c(Br)c2)C(C(=O)OC(C)(C)C)=C(C)N1 | 171 to 172 °C
CCO[C@@H](C)c1nnc([C@H](C)OCC)n1N[C@H](CC)C(OC)OC | 88 °C
CCCN1C(=O)C2(CC(C)C)CC(c3ccc([N+](=O)[O-])cc3)(C2)C1=O | 87 to 88 °C
c1csc(NCCc2c[nH]cn2)n1 | 198 to 199 °C
COC(=O)N(c1cc(C)ccc1C#N)C(C)C | 100 to 101 °C
CC1=Nc2c(C)nn(C)c2C2=NC(C)(C)CN12 | 148 to 150 °C
CN(c1cccc2cc(C3=NCC(C)(C#N)S3)[nH]c12)S(=O)(=O)c1cccs1 (stereo unspecified) | 178 to 179 °C
CCOC(=O)c1ccc(OCc2ccc3c(c2)C(C)(C)CCC3(C)C)cc1 | 109 to 111 °C
CC(C)(C)OC(=O)NCC12CN(c3c(F)cc4c(=O)c(C(=O)O)cn(C5CC5)c4c3Cl)CC1CCO2 (stereo unspecified) | 111 to 113 °C
Cc1c(C2=CCC(Cc3ccccc3)(N(C)C)CC2)[nH]c2ccc(OC(F)(F)F)cc12 (stereo unspecified) | 74 to 75 °C
O=c1[nH]c2cc(Cl)ccc2c(CCc2nnn[nH]2)c1-c1ccccc1 | 231 to 233 °C
Cc1cccc(C(=O)NCN2CCN(c3ccccc3C#N)CC2)c1 | 131 to 133 °C
COC(=O)c1ccc(CN2CC2C#N)c(OC)n1 (stereo unspecified) | 156 to 158 °C
Cn1c(CNCC(C)(C)O)cc2cc(NC(=O)c3ccc(OCC4CC4)cc3)ccc21 | 188 to 189 °C
CC(C)(O)Cc1ccc(N)cc1 | 107 to 108 °C
O=[N+]([O-])N=C1N(COCCBr)CCN1Cc1ccc(Cl)nc1 | 90 to 92 °C
CCCC12CCC(=O)C=C1c1c(cc(CCC(=O)O)c(Cl)c1Cl)C2 (stereo unspecified) | 201 to 203 °C

SMILES | melting point
Cc1cc(=O)c(C(=O)Nc2ccccc2Cl)c(C)o1 | 206 to 207 °C
COc1ccc(-c2ccc(CCNC(=O)c3cc(Cl)ccc3OC)cc2S(N)(=O)=O)cc1 | 205 to 208 °C
C[C@H](c1ccccc1)N1C(=O)N(Cc2ccccc2)[C@@H]2C(=O)OC[C@@H]21 | 163 to 164 °C
Cc1ccc2c(c1)CC(N1CCN(CCN3CCOC3=O)CC1)c1cc(C)ccc1O2 (stereo unspecified) | 145 to 147 °C
CCC(CC)Oc1nc(C)nc(Cc2c(C)cc(C)cc2C)c1C | 82 to 84 °C
CCCCCCCCC(=O)OCc1c(Cl)ccc2cc(Cl)cnc12 | 92 °C
CCOC(=O)c1cnc2sc3c(n12)CCCCC3 | 73 to 74 °C
CC(=O)Oc1cc(S(=O)(=O)Oc2ccc(C(=O)c3c(Cc4ccccc4)oc(C)c3C)cc2C2CCCC2)ccc1C(=O)O | 55 to 90 °C
CCCOc1cc(-c2c(C(=O)OCC)c(Cn3cncn3)nc3cc(OC)c(OC)cc23)ccc1OC | 127 to 128 °C
Cc1c(C(=O)Nc2ccc(SCCCN3CCCCC3)c(C#N)c2)cnn1-c1ccc(Cl)cc1 | 142 °C
CCn1c(=O)ccc2cnc(Nc3ccc(N(C)C)cc3)nc21 | 189 to 191 °C
CCOC(=O)c1nn(C)c(-c2ccccc2)c1S(N)(=O)=O | 141 to 144 °C
CCOC(=O)CCNC(=O)c1cn2nc(NCCCN3CCC(OC(c4ccccc4)c4ccccc4)CC3)ccc2n1 | 83 to 86 °C
CNC(=O)COc1cccc(CCNC(=O)/C=C/c2cccnc2)c1 | 140 to 141 °C
NCCc1c2ccccc2n2c1[nH]c(=O)c1ccccc12 | > 300 °C
CC(Cc1ccc(Br)cc1)C(=O)NC(C)(C)CO (stereo unspecified) | 120 to 121 °C
COc1cc(CCl)ccc1OCCCCOc1ccc(CCl)cc1OC | 116 to 118 °C
Cc1cc(Cl)ccc1OCC(=O)N1Cc2ccc(C(=O)c3cccc4ccccc34)n2Cc2ccccc21 | 130 to 134 °C
CCNCc1nc(-c2ncn3c2CN(C)C(=O)c2cc(F)ccc2-3)no1 | 166 to 168 °C
CC1CCc2c(N3CCNCC3)ccc3c2N1C=C(C(=O)O)C3 (stereo unspecified) | 264 to 265 °C
COc1ccc(C2SCc3c(sc(N)c3C(=O)c3cccs3)S2)cc1 (stereo unspecified) | 138 to 140 °C
CN(C)c1ccc(NC(=O)N(C[C@H]2CC[C@@H](CN(C(=O)Nc3ccc(N(C)C)cc3)C3CCCCCCC3)CC2)C2CCCCCCC2)cc1 | 197 to 200 °C

The remaining lines, values ahead:

melting point | SMILES
127 to 129 °C | CN(CCOc1ccc(CCOCCc2ncn[nH]2)cc1)c1nc2ccccc2o1
105 to 107 °C | O=C(C[N+](=O)[O-])c1ncn(Cc2ccccc2)c1[N+](=O)[O-]
183 to 185 °C | O=C(Nc1ccc(CCCCn2ccnn2)cc1)c1coc(C=Cc2ccc(C(F)(F)F)cc2)n1
330 to 331 °C | CCOc1ccc2nc3[nH]cnc(=O)c3cc2c1OC
143 to 144 °C | Cc1nc(-c2ccc(F)cc2)n(-c2ccc(S(C)(=O)=O)cc2)n1
128 to 131 °C | Cc1cc(N(C)CC(=O)N2CCN(Cc3ccc4c(c3)OCO4)CC2)ccc1Oc1ccc(NC(=O)c2ccc(C(F)(F)F)cc2)cn1
178 to 180 °C | C#CCN1C(=O)C(CC#N)C(CC)(CC)N=C1c1ccccc1 (stereo unspecified)
177 to 178 °C | CCCc1c(OCCCCC(=O)c2ccc3cc(OC)c(OC)cc3c2)ccc(C(=O)O)c1O
228 to 230 °C | O=C(Oc1ccc([N+](=O)[O-])cc1)c1cnc2cc(I)ccc2n1
318 to 320 °C | COc1ccccc1-n1c(=O)[nH]c2c(C(N)=O)nc(-c3ccncc3)nc21
152 °C | COCC(=O)Nc1c(C(=O)CC(=O)Nc2nccs2)cccc1C(F)(F)F
72 °C | CC(=O)C(C)=Cc1sccc1C
196 to 198 °C | COc1cc(-n2ccc(C)n2)ccc1C(=O)N1Cc2ccc(CN(C)C)n2Cc2ccccc21
223 °C | O=C(c1ccccc1)c1nc2cc(C(c3ccccc3)n3ccnc3)ccc2[nH]1 (stereo unspecified)
117 to 119 °C | CC1=CC(C)(C)Cc2c1nc(C(C)C)c(C(C)O)c2-c1ccc(F)cc1 (stereo unspecified)
275 to 278 °C | Cc1cc(C)cc(-c2nc(NC(=O)C3CCCC3)sc2-c2ccncc2)c1
99 to 101 °C | CN1CCC=C(c2nsnc2SCCCC(=O)O)C1
135 °C | CN(C)c1ccc(I)nn1
115 to 116 °C | C[Si](C)(C)CCCOc1ccc(O)c(C(=O)O)c1
86 to 88 °C | CCCc1c(O)ccc(C(=O)OCc2ccccc2)c1O
145 °C | Cc1cc2c(NC(=S)N3Cc4sccc4CC3CO)cccc2cn1 (racemic)
169 to 171 °C | CCn1c(=O)ccc2cnc(Nc3ccc(OCCOC)cc3)nc21
149 to 150 °C | CN(Cc1ccccc1)C(=O)c1c(-c2ccncc2)c(-c2ccc(F)cc2)nn1C
215 to 217 °C | CC(=O)OCC(=O)[C@@]1(O)CCc2c(O)c3c(c(O)c2C1)C(=O)c1cccc(O)c1C3=O
238 to 239 °C | NNC(=O)c1cc2c(s1)-c1ccccc1OC2c1ccccc1 (stereo unspecified)
124 to 126 °C | CCCOc1ccc(OC)cc1-c1ncc(C(=O)OCC)c(=O)[nH]1

melting point | SMILES
152 to 153 °C | CCOC(=O)C(=O)CC(=O)c1cn(Cc2ccc(F)cc2)c2ccc(F)cc2c1=O
91 to 115 °C | CCn1cc(C2(c3cccc(-c4cccnc4F)c3)N=C(N)N3CCCN=C32)cn1 (stereo unspecified)
114 to 116 °C | CCOC(=O)[C@H](Cc1ccc(-c2c(OC)cc(C=O)cc2OC)cc1)NC(=O)c1c(F)cccc1F
245 to 247 °C | Clc1ccc(-c2ccc(N3CCCN(c4ccc(-c5ccc(Cl)cc5)cn4)CC3)nc2)cc1
163 to 164 °C | CCOC(=O)C1=C(C)NC(CO)=C(C(=O)OCC)C1c1ccccc1/C=C/C(=O)OC(C)(C)C (stereo unspecified)
162 to 163 °C | COc1cc(COc2nn(-c3ccccc3)cc2/C=C/C2=NCCO2)ccc1OCc1nc(-c2ccco2)oc1C
48 to 50 °C | Fc1ncccc1-c1cscc1Br
155 to 157 °C | CCOC(=O)C(=Cc1cccc2ccccc12)c1csc(N)n1
33 to 34 °C | CCCCCCCCCCCCCCCCCC#CC(C(=O)OCC)C(=O)OCC
137 to 142 °C | CCc1nc2c(C)cc(C)nc2n1Cc1ccc(C(c2ccccc2)C(C(=O)O)C(=O)O)cc1 (stereo unspecified)
94.5 to 96.5 °C | Cn1cc(C(=O)OCC23CCCN(CC2)C3)c2ccccc21 (stereo unspecified)
55 to 56 °C | C=Cc1nc2cc(Br)ccc2o1
> 300 °C | Nc1nc(Oc2cc(F)cc(F)c2)nc2nc(-c3ccco3)nn12
42 °C | Cc1c(C(=O)c2ccccc2)cccc1[N+](=O)[O-]
86 to 89 °C | O=C(c1ccc(F)cc1)N1CCCC(c2nc(-c3cccc(F)c3)no2)C1 (stereo unspecified)
124 to 125 °C | CCn1c(=O)n(C2CCN(CCCCN3C(=O)c4ccccc4S3(=O)=O)CC2)c2ccccc21
95 to 96 °C | CC(C)(C)OC(=O)NC(CO)C(c1ccccc1)c1ccccc1 (stereo unspecified)
146 to 147 °C | Cc1nc[nH]c1CSCCC1=NCCS(=O)(=O)N1
99.5 to 100 °C | CNC(=S)NCCSCc1cnccn1
93.7 to 95.7 °C | COc1ccc2ncc(C(N)=O)cc2c1
93 to 101 °C | COc1cc2c(cc1Nc1ncc(Cl)c(Nc3ccccc3S(=O)(=O)N(C)C)n1)CCN(C(=O)C(C)(C)N)CC2
187 to 188 °C | CCCCc1nc2c(N)nc3ccccc3c2n1CCNS(=O)(=O)c1ccc(C)cc1
128 to 130 °C | CC(C#N)(COc1cc(F)c(F)cc1-c1ccsc1)NC(=O)c1ccc(OC(F)(F)F)cc1 (stereo unspecified)
124 to 126 °C | O=C(OC1CCN(c2ncc(-c3ccccc3Cl)cn2)CC1)N1CCC(O)CC1
197 °C | CS(=O)(=O)C1Cc2cc(Cl)ccc2C1=O (stereo unspecified)
